Measurements from patent publication US20170275275A1, “BENZENESULFONAMIDES USEFUL AS SODIUM CHANNEL INHIBITORS” (PFIZER INC., priority 2014, published 2017).
Converted amounts (≈) assume the structure as drawn. Counter-ions that a name gives are not always drawn.

biological target: T1, Nav1.7 (or SCN9A) channel (Homo sapiens, UniProt Q15858); assay: Nav1.7 (hSCN9A) channel block, PatchXpress (PX) whole-cell electrophysiology in stably transfected HEK cells; type: cell-based; conditions: estimated IC50 from single point electrophysiology data; PatchXpress platform; HEK cells expressing hSCN9A; clamped at V1/2 of inactivation; read-out: Nav1.7 EIC50
T1 construct: expressed in transfected cells
Method: The ability of the compounds of formula (I) to block the Nav1.7 (or SCN9A) channel was measured using the assay described below.
Human Embryonic Kidney (HEK) cells were transfected with an hSCN9A construct using lipofectamine reagent (Invitrogen), using standard techniques. Cells stably expressing the hSCN9A constructs were identified by their resistance to G-418 (400 μg/ml). Clones were screened for expression using the whole-cell voltage-clamp technique.
HEK cells stably transfected with hSCN9A were maintained in DMEM medium supplemented with 10% heat-inactivated fetal bovine serum and 400 μg/ml G-418 in an incubator at 37° C. with a humidified atmosphere of 10% CO2. For HTS, cells were harvested from flasks by trypsinization and replated in an appropriate multi-well plate (typically 96 or 384 wells/plate) such that confluence would be achieved within 24 hours of plating. Cells were typically used for electrophysiological experiments within 24 to 72 hours after plating.
For conventional whole-cell voltage clamp experiments cells were removed from the culture flask by brief trypsinization and re-plated at low density onto glass cover slips. Cover slips containing HEK cells expressing hSCN9A were placed in a bath on the stage of an inverted microscope and perfused (approximately 1 ml/minutes) with extracellular solution of the following composition: 138 mM NaCl, 2 mM CaCl2, 5.4 mM KCl, 1 mM MgCl2, 10 mM glucose, and 10 mM HEPES, pH 7.4, with NaOH. […] The osmolarity of the extracellular and intracellular solutions was 300 mOsm/kg and 295 mOsm/kg, respectively. All recordings were made at room temperature (22-24° C.) using AXOPATCH 200B amplifiers and PCLAMP software (Axon Instruments, Burlingame, Calif.). hSCN9A currents in HEK cells were measured using the whole-cell configuration of the patch-clamp technique (Hamill et al., 1981). Uncompensated series resistance was typically 2 to 5 mega ohms and >85% series resistance compensation was routinely achieved. […] Current records were acquired at 20 to 50 KHz and filtered at 5 to 10 KHz.
HEK cells stably transfected with hSCN9A were viewed under Hoffman contrast optics and placed in front of an array of flow pipes emitting either control or compound-containing extracellular solutions.
The voltage-dependence of inactivation was determined by applying a series of depolarizing prepulses (8 sec long in 10 mV increments) from a negative holding potential. The voltage was then immediately stepped to 0 mV to assess the magnitude of the sodium current. Currents elicited at 0 mV were plotted as a function of prepulse potential to allow estimation of the voltage at which 50% of the channels were inactivated (midpoint of inactivation or V1/2). Compounds were tested for their ability to inhibit hSCN9A sodium channels by activating the channel with a 20 msec voltage step […] to 0 mV following an 8 second conditioning prepulse to the empirically determined V1/2. Compound effect (% inhibition) was determined by difference in current amplitude before and after application of test compounds. For ease of comparison, “estimated IC-50” (EIC50) values were calculated from single point electrophysiology data by the following equation, (tested concentration, nM)×(100-% inhibition/% inhibition). Inhibition values <20% and >80% were excluded from the calculation.
Electrophysiological assays were conducted with PatchXpress 7000 hardware and associated software (Molecular Devices Corp). All assay buffers and solutions were identical to those used in conventional whole-cell voltage clamp experiments described above. hSCN9A cells were grown as above to 50%-80% confluency and harvested by trypsinization. Trypsinized cells were washed and resuspended in extracellular buffer at a concentration of 1×10^6 cells/ml. The onboard liquid handling facility of the PatchXpress was used for dispensing cells and application of test compounds.

T1 sequence (Q15858 whole entry): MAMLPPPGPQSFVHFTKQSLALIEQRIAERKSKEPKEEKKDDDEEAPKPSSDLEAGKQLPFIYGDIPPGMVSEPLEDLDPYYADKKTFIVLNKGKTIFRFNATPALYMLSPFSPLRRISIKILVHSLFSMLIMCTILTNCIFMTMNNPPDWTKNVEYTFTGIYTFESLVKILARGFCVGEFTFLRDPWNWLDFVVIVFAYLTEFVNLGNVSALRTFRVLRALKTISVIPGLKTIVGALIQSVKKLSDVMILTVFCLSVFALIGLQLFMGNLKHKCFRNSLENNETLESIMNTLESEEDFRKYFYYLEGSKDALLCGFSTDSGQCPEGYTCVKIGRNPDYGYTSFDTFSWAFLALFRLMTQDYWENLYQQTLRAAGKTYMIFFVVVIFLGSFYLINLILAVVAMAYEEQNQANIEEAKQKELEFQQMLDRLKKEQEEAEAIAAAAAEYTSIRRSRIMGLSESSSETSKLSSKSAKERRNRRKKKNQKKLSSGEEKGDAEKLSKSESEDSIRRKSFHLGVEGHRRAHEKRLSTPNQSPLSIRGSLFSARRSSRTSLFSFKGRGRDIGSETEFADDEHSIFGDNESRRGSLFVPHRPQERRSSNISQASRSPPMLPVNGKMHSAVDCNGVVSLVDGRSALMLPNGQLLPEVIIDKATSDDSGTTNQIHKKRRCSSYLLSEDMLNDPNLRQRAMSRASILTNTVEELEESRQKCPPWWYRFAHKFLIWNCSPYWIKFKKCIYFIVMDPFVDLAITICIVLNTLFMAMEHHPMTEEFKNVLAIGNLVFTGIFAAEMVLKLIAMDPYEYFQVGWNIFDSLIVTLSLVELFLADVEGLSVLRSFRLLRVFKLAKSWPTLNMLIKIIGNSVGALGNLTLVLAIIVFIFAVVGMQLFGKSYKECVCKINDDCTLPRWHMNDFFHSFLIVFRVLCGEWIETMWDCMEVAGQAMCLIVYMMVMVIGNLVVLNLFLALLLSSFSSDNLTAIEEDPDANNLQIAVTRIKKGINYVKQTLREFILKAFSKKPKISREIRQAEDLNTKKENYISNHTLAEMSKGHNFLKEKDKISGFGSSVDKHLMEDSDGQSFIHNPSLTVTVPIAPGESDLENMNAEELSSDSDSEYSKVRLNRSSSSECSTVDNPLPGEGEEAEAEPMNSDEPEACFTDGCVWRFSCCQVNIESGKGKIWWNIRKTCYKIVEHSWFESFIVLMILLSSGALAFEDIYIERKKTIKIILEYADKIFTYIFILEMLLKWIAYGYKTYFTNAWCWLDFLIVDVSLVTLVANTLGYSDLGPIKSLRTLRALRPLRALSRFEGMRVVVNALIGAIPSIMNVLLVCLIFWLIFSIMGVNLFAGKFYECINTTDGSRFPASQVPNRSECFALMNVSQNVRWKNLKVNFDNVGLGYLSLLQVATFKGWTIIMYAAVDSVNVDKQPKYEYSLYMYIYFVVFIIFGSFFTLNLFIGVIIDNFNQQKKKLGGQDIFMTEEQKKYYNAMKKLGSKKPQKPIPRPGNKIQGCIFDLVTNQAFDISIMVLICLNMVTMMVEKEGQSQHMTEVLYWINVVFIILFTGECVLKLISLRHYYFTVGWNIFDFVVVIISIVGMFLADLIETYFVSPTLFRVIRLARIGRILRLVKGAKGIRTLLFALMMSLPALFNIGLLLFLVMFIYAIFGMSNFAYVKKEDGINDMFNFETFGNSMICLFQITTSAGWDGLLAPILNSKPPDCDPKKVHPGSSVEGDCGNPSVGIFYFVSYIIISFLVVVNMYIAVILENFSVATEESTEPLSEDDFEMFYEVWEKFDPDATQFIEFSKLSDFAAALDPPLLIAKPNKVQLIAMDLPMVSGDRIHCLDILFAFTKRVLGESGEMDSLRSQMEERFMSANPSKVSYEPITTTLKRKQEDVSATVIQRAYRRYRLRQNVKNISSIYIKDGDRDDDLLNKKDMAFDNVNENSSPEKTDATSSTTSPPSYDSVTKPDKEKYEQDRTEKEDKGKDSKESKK

Row | IC50 | SMILES
1 | 2.3 nM | COCCOCCOCCOCCOCCOCCOCCOCCOCCOCCOCCOCCNCc1cc(-c2cc(-c3cccc(C(F)(F)F)c3)ccc2Oc2ccc(S(=O)(=O)Nc3ncns3)cc2C#N)ccn1 [Example 12, 3-cyano-4-({3-[2-(2,5,8,11,14,17,20,23,26,29,32,35-dodecaoxa-38-azanonatriacontan-39-yl)pyridin-4-yl]-3′-(trifluoromethyl)biphenyl-4-yl}oxy)-N-(1,2,4-thiadiazol-5-yl)benzenesulfonamide]
2 | 13.4 nM | COCCOCCOCCOCCOCCOCCOCCOCCOCCOCCOCCOCCC(=O)N1CCN(c2cc(-c3cc(-c4ccc(C(F)(F)F)cc4)ccc3Oc3ccc(S(=O)(=O)Nc4ncns4)cc3C#N)ccn2)CC1 [Example 24, 4-((3-(2-(4-(2,5,8,11,14,17,20,23,26,29,32,35-dodecaoxaoctatriacontan-38-oyl)piperazin-1-yl)pyridin-4-yl)-4′-(trifluoromethyl)-[1,1′-biphenyl]-4-yl)oxy)-3-cyano-N-(1,2,4-thiadiazol-5-yl)benzenesulfonamide]
3 | 0.9 nM | CC(=O)N1CCC(CCNCc2cccc(-c3cc(-c4ccccc4)ccc3Oc3ccc(S(=O)(=O)Nc4ncns4)cc3C#N)c2)CC1 [Example 16, 4-{[3″-({[2-(1-Acetylpiperidin-4-yl)ethyl]amino}methyl)-1,1′:3′,1″-terphenyl-4′-yl]oxy}-3-cyano-N-1,2,4-thiadiazol-5-ylbenzenesulfonamide]
4 | 10.4 nM | COCCOCCOCCOCCNC(=O)OCc1cc(-c2cc(-c3cccc(C(F)(F)F)c3)ccc2Oc2ccc(S(=O)(=O)Nc3ncns3)cc2C#N)ccn1 [Example 11, (4-(4-(4-(N-(1,2,4-thiadiazol-5-yl)sulfamoyl)-2-cyanophenoxy)-3′-(trifluoromethyl)-[1,1′-biphenyl]-3-yl)pyridin-2-yl)methyl (2,5,8,11-tetraoxatridecan-13-yl)carbamate]
5 | 13 nM | COCCOCCOCCOCCOCc1cc(-c2cc(-c3cccc(C(F)(F)F)c3)ccc2Oc2ccc(S(=O)(=O)Nc3ncns3)cc2C#N)ccn1 [Example 13, 3-cyano-4-({3-[2-(2,5,8,11,14-pentaoxapentadec-1-yl)pyridin-4-yl]-3′-(trifluoromethyl)biphenyl-4-yl}oxy)-N-(1,2,4-thiadiazol-5-yl)benzenesulfonamide]
6 | 5 nM | COCCOCCOCCOCCNC(=O)COCc1cc(-c2cc(-c3cccc(C(F)(F)F)c3)ccc2Oc2ccc(S(=O)(=O)Nc3ncns3)cc2C#N)ccn1 [Example 14, 2-((4-(4-(4-(N-(1,2,4-thiadiazol-5-yl)sulfamoyl)-2-cyanophenoxy)-3′-(trifluoromethyl)-[1,1′-biphenyl]-3-yl)pyridin-2-yl)methoxy)-N-(2,5,8,11-tetraoxatridecan-13-yl)acetamide]
7 | 10.9 nM | COCCOCCOCCOCCNC(=O)NCc1cc(-c2cc(-c3cccc(C(F)(F)F)c3)ccc2Oc2ccc(S(=O)(=O)Nc3ncns3)cc2C#N)ccn1 [Example 9, 3-cyano-4-((3-(2-(3-oxo-7,10,13,16-tetraoxa-2,4-diazaheptadecyl)pyridin-4-yl)-3′-(trifluoromethyl)-[1,1′-biphenyl]-4-yl)oxy)-N-(1,2,4-thiadiazol-5-yl)benzenesulfonamide triethylammonium salt]
8 | 1.5 nM | N#Cc1cc(S(=O)(=O)Nc2ncns2)ccc1Oc1ccc(-c2ccccc2)cc1-c1cccc(CNCCC2CCNCC2)c1 [Example 5, 3-Cyano-4-[(3″-{[(2-piperidin-4-ylethyl)amino]methyl}-1,1′:3′,1″-terphenyl-4′-yl)oxy]-N-1,2,4-thiadiazol-5-ylbenzenesulfonamide sodium salt]
9 | 2.6 nM | COCCOCCOCCOCCO[C@H]1CCN(Cc2cc(-c3cc(-c4cccc(C(F)(F)F)c4)ccc3Oc3ccc(S(=O)(=O)Nc4ncns4)cc3C#N)ccn2)C1 [Example 22, (S)-4-((3-(2-((3-((2,5,8,11-tetraoxatridecan-13-yl)oxy)pyrrolidin-1-yl)methyl)pyridin-4-yl)-3′-(trifluoromethyl)-[1,1′-biphenyl]-4-yl)oxy)-3-cyano-N-(1,2,4-thiadiazol-5-yl)benzenesulfonamide hemi-trifluoroacetate salt]
10 | 9.8 nM | COCCOCCOCCOCCOCCOCCOCCOCCOCCOCCOCCOCCC(=O)N1CCC(CCNCc2cccc(-c3cc(-c4ccccc4)ccc3Oc3ccc(S(=O)(=O)Nc4ncns4)cc3C#N)c2)CC1 [Example 31, 3-cyano-4-({3″-[({2-[1-(38-oxo-2,5,8,11,14,17,20,23,26,29,32,35-dodecaoxaoctatriacontan-38-yl)piperidin-4-yl]ethyl}amino)methyl]-1,1′:3′,1″-terphenyl-4′-yl}oxy)-N-(1,2,4-thiadiazol-5-yl)benzenesulfonamide]
11 | 5.8 nM | CC(=O)N1CCC(CCNCc2cc(-c3cc(-c4cccc(C(F)(F)F)c4)ccc3Oc3ccc(S(=O)(=O)Nc4ncns4)cc3C#N)ccn2)CC1 [Example 1, 4-({3-[2-({[2-(1-Acetylpiperidin-4-yl)ethyl]amino}methyl)pyridin-4-yl]-3′-(trifluoromethyl)biphenyl-4-yl}oxy)-3-cyano-N-1,2,4-thiadiazol-5-ylbenzenesulfonamide]
12 | 4.7 nM | COCCOCCOCCOCCNCCOCc1cc(-c2cc(-c3cccc(C(F)(F)F)c3)ccc2Oc2ccc(S(=O)(=O)Nc3ncns3)cc2C#N)ccn1 [Example 10, 4-((3-(2-(2,8,11,14,17-pentaoxa-5-azaoctadecyl)pyridin-4-yl)-3′-(trifluoromethyl)-[1,1′-biphenyl]-4-yl)oxy)-3-cyano-N-(1,2,4-thiadiazol-5-yl)benzenesulfonamide]
13 | 16 nM | COCCOCCOCCOCCOCCOCCOCCOCCOCCOCCOCCOCCC(=O)N1CCN(c2cc(-c3cc(-c4ccc(C(F)(F)F)cc4)ccc3Oc3cc(F)c(S(=O)(=O)Nc4nncs4)cc3Cl)ccn2)CC1 [Example 32, 5-chloro-2-fluoro-4-{[3-{2-[4-(38-oxo-2,5,8,11,14,17,20,23,26,29,32,35-dodecaoxaoctatriacontan-38-yl)piperazin-1-yl]pyridin-4-yl}-4′-(trifluoromethyl)biphenyl-4-yl]oxy}-N-(1,3,4-thiadiazol-2-yl)benzenesulfonamide]
14 | 5 nM | COCCOCCOCCOCCOC1CCN(Cc2cc(-c3cc(-c4cccc(C(F)(F)F)c4)ccc3Oc3ccc(S(=O)(=O)Nc4ncns4)cc3C#N)ccn2)CC1 [Example 23, 4-((3-(2-((4-((2,5,8,11-tetraoxatridecan-13-yl)oxy)piperidin-1-yl)methyl)pyridin-4-yl)-3′-(trifluoromethyl)-[1,1′-biphenyl]-4-yl)oxy)-3-cyano-N-(1,2,4-thiadiazol-5-yl)benzenesulfonamide trifluoroacetate salt]

tested on: not listed separately; assay: Aqueous solubility, shake-flask method; type: physicochemical; conditions: aqueous buffer, thermodynamic from solid, pH 7.4, shaken 18 hours at room temperature
Method: Aqueous solubility data were generated via a “shake-flask” method where an excess of compound was added to a buffer (typically phosphate buffered saline at pH 7.4) and shaken for a period of 18 hours at room temperature. After this time any excess solid was removed by double centrifugation to obtain a saturated aqueous solution. The amount of compound solubilised was quantified by HPLC-UV or LC-MS against a standard calibration curve.
The solubility data generated are set out below. Where a greater than figure is quoted, all available compound was solubilised and saturation was not achieved in the conditions employed.

Row | solubility at 18 h | SMILES
15 | > 10000 µg/mL | N#Cc1cc(S(=O)(=O)Nc2ncns2)ccc1Oc1ccc(-c2cccc(C(F)(F)F)c2)cc1-c1ccnc(CNCCC2CCNCC2)c1 [Example 18b, 3-Cyano-4-{[3-(2-{[(2-piperidin-4-ylethyl)amino]methyl}pyridin-4-yl)-3′-(trifluoromethyl)biphenyl-4-yl]oxy}-N-1,2,4-thiadiazol-5-ylbenzenesulfonamide trihydrochloride salt]

same assay, conditions: aqueous buffer, thermodynamic from solid, pH 7.5, shaken 18 hours at room temperature

Row | solubility at 18 h | SMILES
16 | 612 µg/mL (≈ 532 µM) | COCCOCCOCCOCCOCCOCCOCCOCCOCCOCCOCCOCCNCc1cc(-c2cc(-c3cccc(C(F)(F)F)c3)ccc2Oc2ccc(S(=O)(=O)Nc3ncns3)cc2C#N)ccn1 [Example 12, 3-cyano-4-({3-[2-(2,5,8,11,14,17,20,23,26,29,32,35-dodecaoxa-38-azanonatriacontan-39-yl)pyridin-4-yl]-3′-(trifluoromethyl)biphenyl-4-yl}oxy)-N-(1,2,4-thiadiazol-5-yl)benzenesulfonamide]
